What follows are molecules tested against KRAS G12C and cRAF (Ras-binding domain) interaction (Homo sapiens (Human), UniProt P01116, C118S/C51S/C80L/G12C) (assay: Inhibition of KRAS G12C and cRAF binding (AlphaScreen)). Conditions: GMPPNP-loaded KRAS G12C, 19-20 hours incubation with compound; read-out: IC50 (Inhibition of KRAS G12C and cRAF Binding).
KRAS G12C and cRAF (Ras-binding domain) interaction, sequence (P01116 other isoform, or with tags, fused parts or gaps G12C/C51S/C80L/C118S): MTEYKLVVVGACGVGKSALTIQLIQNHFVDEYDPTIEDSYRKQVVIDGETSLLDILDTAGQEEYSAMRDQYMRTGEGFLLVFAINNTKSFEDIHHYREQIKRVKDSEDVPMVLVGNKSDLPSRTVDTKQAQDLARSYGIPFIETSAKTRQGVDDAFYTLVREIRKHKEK
Method in brief: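 Compounds (DMSO) preincubated 19-20 h at room temperature, then RBD with streptavidin donor and glutathione acceptor beads added in 25 mM Hepes pH 7.4, 150 mM NaCl, 5 mM MgCl2, 0.01% Triton X-100, 2% DMSO for 60-90 min. Emission 570 nm (excitation 680 nm); IC50 by 4-parameter fit. Counter-screen used biotin-AviTag-GST instead of RBD.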
`C#Cc1c(F)ccc2cccc(-c3ncc4c(N(C)[C@@H]5CCN(C(=O)C=C6CN(C)C6)C5)nc(OC[C@@]56CCCN5C[C@H](F)C6)nc4c3F)c12` [Example 298, 1-((R)-3-((7-(8-ethynyl-7-fluoronaphthalen-1-yl)-8-fluoro-2-(((2R,7aS)-2-fluorotetrahydro-1H-pyrrolizin-7a(5H)-yl)methoxy)pyrido[4,3-d]pyrimidin-4-yl)(methyl)amino)pyrrolidin-1-yl)-2-(1-methylazetidin-3-ylidene)ethan-1-one] gave an IC50 of less than 10 nM.
Molecule `CN(c1nc(OC[C@@]23CCCN2C[C@H](F)C3)nc2c(F)c(-c3cccc4ccc(F)c(Cl)c34)ncc12)[C@@H]1CCN(C(=O)/C=C/C2CCCN2)C1` (stereo partly drawn) [Example 102, (E)-1-((R)-3-((7-(8-chloro-7-fluoronaphthalen-1-yl)-8-fluoro-2-(((2R,7aS)-2-fluorotetrahydro-1H-pyrrolizin-7a(5H)-yl)methoxy)pyrido[4,3-d]pyrimidin-4-yl)(methyl)amino)pyrrolidin-1-yl)-3-(pyrrolidin-2-yl)prop-2-en-1-one] has an IC50 of 10 to 100 nM.
In the case of `CN(CC1CN(C(=O)/C=C/[C@@H]2CCN2C)C1)c1nc(OC[C@@]23CCCN2C[C@H](F)C3)nc2c(F)c(-c3cccc4ccc(F)c(Cl)c34)ncc12` [Example 220, (E)-1-(3-(((7-(8-chloro-7-fluoronaphthalen-1-yl)-8-fluoro-2-(((2R,7aS)-2-fluorotetrahydro-1H-pyrrolizin-7a(5H)-yl)methoxy)pyrido[4,3-d]pyrimidin-4-yl)(methyl)amino)methyl)azetidin-1-yl)-3-((S)-1-methylazetidin-2-yl)prop-2-en-1-one], the IC50 is reported as less than 10 nM.
Molecule `COC(=O)/C=C/C(=O)N1C[C@H](N(C)c2nc(OCC34CCCN3CCC4)nc3c2CCN(c2cccc4cccc(Cl)c24)C3)C[C@@H]1C` [Example 20, methyl(E)-4-((2S,4R)-4-((7-(8-chloronaphthalen-1-yl)-2-((tetrahydro-1H-pyrrolizin-7a(5H)-yl)methoxy)-5,6,7,8-tetrahydropyrido[3,4-d]pyrimidin-4-yl)(methyl)amino)-2-methylpyrrolidin-1-yl)-4-oxobut-2-enoate] has an IC50 of 10 to 100 nM.
For `C[C@@H]1C[C@@H](N(C)c2nc(OC[C@@H]3CCCN3C)nc3c2CCN(c2cccc4cccc(Cl)c24)C3)CN1C#N` [Example 38, (2R,4R)-4-((7-(8-chloronaphthalen-1-yl)-2-(((S)-1-methylpyrrolidin-2-yl)methoxy)-5,6,7,8-tetrahydropyrido[3,4-d]pyrimidin-4-yl)(methyl)amino)-2-methylpyrrolidine-1-carbonitrile], the IC50 was greater than 500 nM.
`CN(c1nc(OC[C@@]23CCCN2C[C@H](F)C3)nc2c(F)c(-c3cccc4cccc(Cl)c34)ncc12)[C@@H]1CCN(C(=O)C#CC2CNCCO2)C1` (stereo partly drawn) [Example 64, 1-((R)-3-((7-(8-chloronaphthalen-1-yl)-8-fluoro-2-(((2R,7aS)-2-fluorohexahydro-1H-pyrrolizin-7a-yl)methoxy)pyrido[4,3-d]pyrimidin-4-yl)(methyl)amino)pyrrolidin-1-yl)-3-(morpholin-2-yl)prop-2-yn-1-one] was tested, and the IC50 was less than 10 nM.
For `CCN(CC)C/C=C/S(=O)(=O)CCN(C)c1nc(OCC23CCCN2CCC3)nc2c1CCN(c1cccc3cccc(Cl)c13)C2` [Example 55, (E)-7-(8-chloronaphthalen-1-yl)-N-(2-((3-(diethylamino)prop-1-en-1-yl)sulfonyl)ethyl)-2-((hexahydro-1H-pyrrolizin-7a-yl)methoxy)-N-methyl-5,6,7,8-tetrahydropyrido[3,4-d]pyrimidin-4-amine], the IC50 was less than 10 nM.
Work on `COC(=O)/C=C/C(=O)N1CC(CN(C)c2nc(OC[C@@H]3CCCN3C)nc3c2CCN(c2cccc4cccc(Cl)c24)C3)C1` [Example 16, methyl(S,E)-4-(3-(((7-(8-chloronaphthalen-1-yl)-2-((1-methylpyrrolidin-2-yl)methoxy)-5,6,7,8-tetrahydropyrido[3,4-d]pyrimidin-4-yl)(methyl)amino)methyl)azetidin-1-yl)-4-oxobut-2-enoate] yielded an IC50 of 10 to 100 nM.
`C=CC(=O)N1CC[C@@H](N(C)c2nc(OCC34CCCN3CCC4)nc3c(F)c(-c4cccc5ccc(F)c(F)c45)ncc23)C1` [Example 265, (R)-1-(3-((7-(7,8-difluoronaphthalen-1-yl)-8-fluoro-2-((tetrahydro-1H-pyrrolizin-7a(5H)-yl)methoxy)pyrido[4,3-d]pyrimidin-4-yl)(methyl)amino)pyrrolidin-1-yl)prop-2-en-1-one] showed an IC50 of 10 to 100 nM.
`C#Cc1c(F)ccc2cccc(-c3ncc4c(N(C)[C@@H]5CCN(C(=O)/C=C/CN6C7COCC6C7)C5)nc(OC[C@@]56CCCN5C[C@H](F)C6)nc4c3F)c12` [Example 293, (E)-4-(3-oxa-6-azabicyclo[3.1.1]heptan-6-yl)-1-((R)-3-((7-(8-ethynyl-7-fluoronaphthalen-1-yl)-8-fluoro-2-(((2R,7aS)-2-fluorotetrahydro-1H-pyrrolizin-7a(5H)-yl)methoxy)pyrido[4,3-d]pyrimidin-4-yl)(methyl)amino)pyrrolidin-1-yl)but-2-en-1-one] showed an IC50 of less than 10 nM.
`C=CC(=O)N1CC[C@@H](Nc2nc(OC[C@@]34CCCN3C[C@H](F)C4)nc3c(F)c(-c4cccc5cccc(Cl)c45)ncc23)[C@H]1C` [Example 190, 1-((2R,3R)-3-((7-(8-chloronaphthalen-1-yl)-8-fluoro-2-(((2R,7aS)-2-fluorotetrahydro-1H-pyrrolizin-7a(5H)-yl)methoxy)pyrido[4,3-d]pyrimidin-4-yl)amino)-2-methylpyrrolidin-1-yl)prop-2-en-1-one] was tested, and the IC50 was 100 to 500 nM.

Same assay, conditions: additional exemplary compounds; KRAS G12C and cRAF binding; read-out: RAF1 RBD IC50
For `C=CC(=O)N1CC[C@@H](C)[C@@H](Nc2nc(OC[C@@]34CCCN3C[C@H](F)C4)nc3c(F)c(-c4cccc5cccc(Cl)c45)ncc23)C1`, the IC50 was greater than 500 nM.
In the case of `C=CC(=O)N1CC[C@@H](N(C)c2nc(OC[C@@]34CCCN3C[C@H](F)C4)nc3c(F)c(-c4cccc5ccc(F)c(Cl)c45)ncc23)C1`, the IC50 is reported as 10 to 100 nM.
For `C=CC(=O)N1C[C@@H](F)[C@H](N(C)c2nc(OC[C@@]34CCCN3C[C@H](F)C4)nc3c(F)c(-c4cccc5cccc(Cl)c45)ncc23)C1`, the IC50 was greater than 500 nM.
With `C=CC(=O)N1CC(CN(C)c2nc(OC[C@@]34CCCN3C[C@@H](F)C4)nc3c(F)c(-c4cccc5cccc(Cl)c45)ncc23)C1` the IC50 was greater than 500 nM.
`C=CC(=O)N1CC[C@H](C)[C@H](Nc2nc(OC[C@@]34CCCN3C[C@H](F)C4)nc3c(F)c(-c4cccc5cccc(Cl)c45)ncc23)C1` gave an IC50 greater than 500 nM.
For `C=CC(=O)N1CC[C@H]2[C@H]1CCN2c1nc(OCC23CCCN2CCC3)nc2c1CCN(c1cccc3cccc(Cl)c13)C2`, the IC50 was greater than 500 nM.
`O=C(/C=C/CN1C2CCC1COC2)N1CCN(c2nc(OC[C@@]34CCCN3C[C@H](F)C4)nc3c(F)c(-c4cccc5cccc(Cl)c45)ncc23)C2CC21` (stereo partly shown) showed an IC50 greater than 500 nM.
In the case of `CN(C)C/C=C/C(=O)N1CC[C@@H](N(C)c2nc(OCC34CCCN3CCC4)nc3c2CCN(c2cccc4cccc(Cl)c24)C3)C1`, the IC50 is reported as 10 to 100 nM.
`C=CC(=O)N1CC[C@@H](N(C)c2nc(OC[C@@]34CCCN3C[C@@H](F)C4)nc3c(F)c(-c4cccc5cccc(Cl)c45)ncc23)C1` gave an IC50 greater than 500 nM.
Work on `C=CC(=O)N1CC(CNc2nc(OC[C@@]34CCCN3C[C@H](F)C4)nc3c(F)c(-c4cccc5cccc(Cl)c45)ncc23)C1` yielded an IC50 of 100 to 500 nM.
In the case of `C=CC(=O)N1CC[C@@H](F)[C@@H](N(C)c2nc(OC[C@@]34CCCN3C[C@H](F)C4)nc3c(F)c(-c4cccc5cccc(Cl)c45)ncc23)C1`, the IC50 is reported as greater than 500 nM.

Reference: patent US20250019387A1 (Frontier Medicines Corporation, priority 0001, published 2025)
